# Values quoted from earlier work in PMC4939907 (Angewandte Chemie (International ed. in English), 2016).
# Tested on: cancer (e.g., HeLa) and normal (e.g., HS-5) cells
# Settings: cancer (e.g., HeLa) versus normal (e.g., HS-5) cells; ref 4c, 4d, 10b
substance,measurement,value
Nap-D-Phe-D-Phe-D-pTyr,selectivity for cancer cells,selectively inhibits cancer cells
